From ChEMBL document CHEMBL1139393 (Bioorg Med Chem Lett, 2008)

Assays:
Matrilysin = target: T1, Matrilysin (Homo sapiens, UniProt P09237)
T1 sequence (P09237 whole entry): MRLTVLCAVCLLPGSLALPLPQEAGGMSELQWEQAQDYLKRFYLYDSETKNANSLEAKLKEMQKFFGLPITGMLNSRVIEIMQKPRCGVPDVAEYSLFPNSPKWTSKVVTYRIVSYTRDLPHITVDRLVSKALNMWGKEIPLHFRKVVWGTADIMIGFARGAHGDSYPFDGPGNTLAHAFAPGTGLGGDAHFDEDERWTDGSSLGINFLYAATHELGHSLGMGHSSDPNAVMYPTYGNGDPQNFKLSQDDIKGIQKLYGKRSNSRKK

Stromelysin-1 = Stromelysin-1 (Homo sapiens, UniProt P08254)
Sequence of Stromelysin-1 (P08254 whole entry): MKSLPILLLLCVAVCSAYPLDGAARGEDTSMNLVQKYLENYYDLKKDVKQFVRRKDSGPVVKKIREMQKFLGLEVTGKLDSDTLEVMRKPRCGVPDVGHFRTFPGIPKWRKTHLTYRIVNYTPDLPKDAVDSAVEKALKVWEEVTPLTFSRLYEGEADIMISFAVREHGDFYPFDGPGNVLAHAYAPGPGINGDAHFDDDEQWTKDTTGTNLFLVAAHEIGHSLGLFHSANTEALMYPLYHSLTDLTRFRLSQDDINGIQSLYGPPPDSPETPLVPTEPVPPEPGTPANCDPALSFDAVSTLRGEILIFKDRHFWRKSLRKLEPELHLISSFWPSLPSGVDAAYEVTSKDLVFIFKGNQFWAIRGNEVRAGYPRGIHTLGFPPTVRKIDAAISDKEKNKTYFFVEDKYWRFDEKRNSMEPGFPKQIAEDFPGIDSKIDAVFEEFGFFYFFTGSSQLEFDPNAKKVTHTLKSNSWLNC

Interstitial collagenase = target: T2, Interstitial collagenase (Homo sapiens, UniProt P03956)
T2 sequence (P03956 whole entry): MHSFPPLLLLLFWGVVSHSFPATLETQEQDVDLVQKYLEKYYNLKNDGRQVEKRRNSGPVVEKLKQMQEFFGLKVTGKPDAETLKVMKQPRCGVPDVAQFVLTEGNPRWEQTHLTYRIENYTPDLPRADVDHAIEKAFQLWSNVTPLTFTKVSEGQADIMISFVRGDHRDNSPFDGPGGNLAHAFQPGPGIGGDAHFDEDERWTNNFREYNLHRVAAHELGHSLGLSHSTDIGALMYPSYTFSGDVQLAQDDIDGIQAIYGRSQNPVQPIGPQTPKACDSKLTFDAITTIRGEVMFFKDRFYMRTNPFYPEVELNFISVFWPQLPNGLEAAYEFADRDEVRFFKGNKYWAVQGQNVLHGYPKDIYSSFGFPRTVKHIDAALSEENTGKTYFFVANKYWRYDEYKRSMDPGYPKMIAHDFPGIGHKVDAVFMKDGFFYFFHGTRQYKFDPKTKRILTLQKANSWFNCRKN

[1] = target: 72 kDa type IV collagenase (Homo sapiens, UniProt P08253)
Sequence of 72 kDa type IV collagenase (P08253 whole entry): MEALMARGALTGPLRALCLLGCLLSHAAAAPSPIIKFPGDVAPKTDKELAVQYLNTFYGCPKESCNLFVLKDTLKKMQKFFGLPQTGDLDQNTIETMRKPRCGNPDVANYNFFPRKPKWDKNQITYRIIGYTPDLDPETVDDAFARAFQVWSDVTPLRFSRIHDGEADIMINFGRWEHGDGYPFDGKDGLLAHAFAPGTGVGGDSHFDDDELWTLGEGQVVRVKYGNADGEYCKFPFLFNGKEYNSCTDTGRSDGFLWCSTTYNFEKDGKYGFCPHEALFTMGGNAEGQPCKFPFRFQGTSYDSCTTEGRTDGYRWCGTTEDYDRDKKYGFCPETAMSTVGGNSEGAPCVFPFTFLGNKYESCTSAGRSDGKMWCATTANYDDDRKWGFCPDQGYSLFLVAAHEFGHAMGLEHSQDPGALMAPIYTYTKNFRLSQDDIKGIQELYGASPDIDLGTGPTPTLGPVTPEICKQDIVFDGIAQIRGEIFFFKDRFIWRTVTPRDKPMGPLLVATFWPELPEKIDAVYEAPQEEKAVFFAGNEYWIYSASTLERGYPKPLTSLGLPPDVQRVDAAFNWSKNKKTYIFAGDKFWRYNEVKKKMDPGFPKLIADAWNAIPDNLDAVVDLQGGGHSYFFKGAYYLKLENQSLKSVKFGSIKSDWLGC

[2] = target: Matrix metalloproteinase-14 (Homo sapiens, UniProt P50281)
[3] = target: T3, Disintegrin and metalloproteinase domain-containing protein 10 (Homo sapiens, UniProt O14672)
T3 sequence (O14672 whole entry): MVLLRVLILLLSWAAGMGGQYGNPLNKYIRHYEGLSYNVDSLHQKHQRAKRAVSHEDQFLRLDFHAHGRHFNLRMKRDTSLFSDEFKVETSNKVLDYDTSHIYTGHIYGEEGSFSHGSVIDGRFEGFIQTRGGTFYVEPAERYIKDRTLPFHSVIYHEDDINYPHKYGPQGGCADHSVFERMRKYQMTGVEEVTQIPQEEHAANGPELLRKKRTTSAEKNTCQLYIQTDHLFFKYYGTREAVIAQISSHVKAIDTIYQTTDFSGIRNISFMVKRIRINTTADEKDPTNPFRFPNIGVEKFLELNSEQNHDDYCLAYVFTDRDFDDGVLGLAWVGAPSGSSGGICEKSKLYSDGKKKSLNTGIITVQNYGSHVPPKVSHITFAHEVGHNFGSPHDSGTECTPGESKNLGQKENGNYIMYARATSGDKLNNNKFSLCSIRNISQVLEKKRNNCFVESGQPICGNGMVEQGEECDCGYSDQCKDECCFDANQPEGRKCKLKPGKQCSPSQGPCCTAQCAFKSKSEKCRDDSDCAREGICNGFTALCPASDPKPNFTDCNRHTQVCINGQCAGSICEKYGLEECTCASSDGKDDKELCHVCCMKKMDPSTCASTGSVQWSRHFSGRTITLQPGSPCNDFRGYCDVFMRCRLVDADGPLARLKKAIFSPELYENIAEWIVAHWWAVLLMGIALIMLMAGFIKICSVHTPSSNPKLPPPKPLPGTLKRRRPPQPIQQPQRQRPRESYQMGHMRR

[4] = AUC in Sprague-Dawley rat at 10 mg/kg, po; assay type: ADME, organism-based; parameters: dose 10 mg/kg, route oral; conditions: plasma
[5] = Permeability from apical to basolateral side of human Caco-2 cells; assay type: ADME, cell-based; conditions: read-out: permeability

In the case of Cc1cc(COc2ccc(C[C@]3(C(N)=O)C[C@@H]3C(=O)NO)cc2)c2ccccc2n1, the Ki (Matrilysin) is reported as 0.11 mM, the Ki (Stromelysin-1) is reported as 0.058 mM and the Ki (Interstitial collagenase) is reported as greater than 10 mM. The Ki [1] was 1 mM, the Ki [2] was 2.4 mM and the Ki [3] was greater than 10 mM.
In the case of N#C[C@@]1(Cc2ccc(OCc3cc(-c4ccccc4)nc4ccccc34)cc2)C[C@@H]1C(=O)NO, the AUC [4] is reported as greater than 2.5 µM·h.
Compound NC(=O)[C@@]1(Cc2ccc(OCc3cc(-c4ccccc4)nc4ccccc34)c(F)c2)C[C@@H]1C(=O)NO has a Papp A→B [5] of 0.3 ×10⁻⁶ cm/s.
Compound O=C(NO)[C@H]1C[C@]1(Cc1ccc(OCc2cc(-c3ccccc3)nc3ccccc23)cc1)C(=O)N1CCC[C@H]1CO has a Ki (Matrilysin) greater than 10 mM, a Ki (Stromelysin-1) greater than 10 mM and a Ki (Interstitial collagenase) greater than 10 mM. For the same compound, the Ki [1] was greater than 10 mM, the Ki [2] was greater than 10 mM and the Ki [3] was greater than 10 mM.
